“Also recorded” adds a separate entry of the source. Where two headings read alike, the source gives them in different places. Positions of bridges follow the written chain, without caps; N, C: chain ends. No end group written: not given here.
Assays:
ASIC3 = settings: cited from earlier work; for potency and specificity of ASIC3 inhibition (in words): statement on the majority of currently known inhibitors of ASIC3
Excerpt: Acid-sensing ion channels (ASICs) are proton-gated sodium channels present in the central and peripheral nervous system of chordates. ASIC3 is highly expressed in sensory neurons and plays an important role in inflammatory and ischemic pain. Thus, specific inhibitors of ASIC3 have the potential to be developed as novel analgesics. […] However, the mechanism of action of APETx2 and the molecular basis for its interaction with ASIC3 is not known. In order to assis ... || The pharmacology of ASIC3 is still relatively poorly understood when compared with voltage-gated sodium (NaV) and calcium (CaV) channels. Thus, the characterization of, and development of structure-activity relationships for, selective ASIC3 modulators will be useful for characterizing the function of ASIC3 under both normal and pathophysiological conditions.

[1] = tested on: acid-induced and post-operative pain in rats; parameters: method as in PMID 18923424, PMID 21508231, PMID 20860671; settings: cited from earlier work
NaV1.8 = settings: cited from earlier work
Excerpt: The pharmacology of ASIC3 is still relatively poorly understood when compared with voltage-gated sodium (NaV) and calcium (CaV) channels. Thus, the characterization of, and development of structure-activity relationships for, selective ASIC3 modulators will be useful for characterizing the function of ASIC3 under both normal and pathophysiological conditions.

[2] = tested on: ASIC3-containing channels (ASIC3, ASIC3/1a, ASIC3/1b, ASIC3/2b); settings: cited from earlier work
Excerpt: (§1) The pharmacology of ASIC3 is still relatively poorly understood when compared with voltage-gated sodium (NaV) and calcium (CaV) channels. Thus, the characterization of, and development of structure-activity relationships for, selective ASIC3 modulators will be useful for characterizing the function of ASIC3 under both normal and pathophysiological conditions. […] The majority of currently known inhibitors of ASIC3 (e.g., gadolinium, a ...

rodent pain models = settings: cited from earlier work
Excerpt: as §1

rat ASIC3 = molecular target: T1, rat ASIC3 (Rattus norvegicus, UniProt O35240); assay: Inhibition of homomeric rat ASIC3 currents in Xenopus oocytes (two-electrode voltage clamp); assay type: cell-based; settings: rat ASIC3 in Xenopus laevis oocytes; pH drop from 7.4 to 6.0 every minute; -60 mV; RT (18–21 °C); ND96 with 0.1% BSA; pH 6 stimulus buffered with MES
T1 construct: expressed in transfected cells; host or cells: Xenopus laevis oocytes (cRNA injection)
T1 sequence (O35240 1-533): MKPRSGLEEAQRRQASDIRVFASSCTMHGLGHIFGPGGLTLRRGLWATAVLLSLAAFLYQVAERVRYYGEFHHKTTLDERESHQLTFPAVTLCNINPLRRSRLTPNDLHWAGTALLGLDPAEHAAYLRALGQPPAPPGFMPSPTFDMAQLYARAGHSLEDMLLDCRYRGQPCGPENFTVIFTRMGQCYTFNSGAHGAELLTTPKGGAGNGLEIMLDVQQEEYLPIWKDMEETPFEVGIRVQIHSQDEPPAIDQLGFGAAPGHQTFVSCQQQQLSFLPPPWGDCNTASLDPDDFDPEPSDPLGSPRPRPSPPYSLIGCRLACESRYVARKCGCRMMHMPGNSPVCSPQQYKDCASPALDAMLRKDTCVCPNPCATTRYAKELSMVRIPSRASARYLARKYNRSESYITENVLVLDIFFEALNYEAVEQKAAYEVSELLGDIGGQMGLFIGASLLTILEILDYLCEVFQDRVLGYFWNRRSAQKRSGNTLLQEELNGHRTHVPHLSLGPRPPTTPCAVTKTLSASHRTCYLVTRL
Protocol: The efficacy of rAPETx2 was tested on rat ASIC3 expressed in Xenopus laevis oocytes.
Figure 4 (A) Representative current traces comparing the concentration-dependent inhibition of rat ASIC3 (expressed in Xenopus oocytes) by synthetic (s) and recombinant (r) APETx2. (B) Concentration-effect curves for sAPETx2 and an rAPETx2–F15A mutant.
Oocytes were obtained from Xenopus laevis and defolliculatd by treatment with collagenase (Sigma type I). Rat ASIC3 cRNA was synthesised using an mMessage mMachine cRNA transcription kit and healthy stage V–VI oocytes injected with 4 ng rat ASIC3 cRNA (40 nL of 100 ng/μL). Oocytes were kept at 17 °C in ND96 solution (96 mM NaCl, 2 mM KCl, 1 mM CaCl2, 2 mM MgCl2, 5 mM HEPES, 5 mM pyruvic acid, 50 µg/mL gentamicin, 2.5% fetal horse serum, pH 7.4). Membrane currents were recorded 2–6 days post cRNA injection under voltage-clamp (Axoclamp 900A amplifier, Molecular Devices, Sunnyvale, CA, USA) using two standard glass microelectrodes with resistances of 0.5–1 MΩ when filled with 3 M KCl solution. Data acquisition and analysis were performed using pCLAMP software (Version 10, Molecular Devices, Sunnyvale, CA, USA). Oocytes were clamped at −60 mV with data sampled at 1000 Hz and filtered at […]. All experiments were performed at RT (18–21 °C) in ND96 solution containing 0.1% fatty acid free-bovine serum albumin (BSA). […]

Cc1nc(NC(=N)N)nc2ccccc12 [GMQ, 2-guanidine-4-methylquinazoline]
ASIC3 agonism (in words) (ASIC3; normal pH): persistent activation at normal pH

N=C(N)NC(=O)c1nc(Cl)c(N)nc1N [amiloride]
potency and specificity of ASIC3 inhibition (in words) (ASIC3): neither potent nor specific

[Gd] [gadolinium]
potency and specificity of ASIC3 inhibition (in words) (ASIC3): neither potent nor specific

APETx2
effect on acid-induced and post-operative pain (in words) [1]: abolish acid-induced and post-operative pain in rats | inhibition of NaV1.8 (in words) (NaV1.8): inhibits NaV 1.8 | potency on NaV1.8 relative to ASIC3 (in words) (NaV1.8; compared with ASIC3): lower potency than for ASIC3 | potency and selectivity for ASIC3 (in words) (ASIC3; ASIC3 / ASIC3-containing channels): most potent and selective inhibitor of ASIC3-containing channels; also recorded: only known potent and selective inhibitor of ASIC3; also recorded: specific peptide blocker of ASIC3 | IC50 ([2]; homomeric ASIC3, read-out: IC50 for homomeric ASIC3): ~0.06 µM | IC50 ([2]; upper end of range, depending on the subunit composition of the channel, read-out: IC50 for ASIC3-containing channels (upper end)): ≤ 2 µM | analgesic effect in rodent pain models (in words) (rodent pain models): analgesic in rodent pain models

GTACSCGNSKGIYWFYRPSCPTDRGYTGSCRYFLGTCCTPAD (disulfide 4-37, 6-30, 20-38) [rAPETx2]
IC50 (rat ASIC3): 0.08 µM

— paper PMC3407934, “Functional Expression in Escherichia coli of the Disulfide-Rich Sea Anemone Peptide APETx2, a Potent Blocker of Acid-Sensing Ion Channel 3” (Marine Drugs, 2012)
